Results on one molecule are retold here after patent US20210275419A1, “Personal Care Compositions” (Colgate-Palmolive Company, priority 2020, published 2021).

In the assay the test system is tyrosinase. Description: tyrosinase inhibitor screening kit (Sigma Aldrich, MAK 257 Kit). The assay is classed as biochemical. The note with it: Example 4; 0.156 wt. %. How it is done: The anti-tyrosinase activity of an exemplary composition of the present invention was compared to the anti-tyrosinase activity of individual short chain fatty acids. Assays were performed using a tyrosinase inhibitor screening kit from Sigma Aldrich; and following the manufacturer's protocol. The results of these experiments are described in Table 1 (below).
The anti-tyrosinase activity of an exemplary composition of the present invention was compared to the anti-tyrosinase activity of individual short chain fatty acids. Assays were performed using a tyrosinase inhibitor screening kit from Sigma Aldrich (MAK 257 Kit); and following the manufacturer's protocol. The results of these experiments are described in Table 4 (below). […]
Peels were diluted 1000× in buffer to prepare 0.1% working stock. […] The pH of all test samples and dilutions was measured before and after tyrosinase assay to exclude any effect of acid on the enzyme activity. […] LMP peels containing various concentrations of pyruvic acid at pH 2.5 (“R1 Peels”); LMP peels which were identically formulated to the R1 Peels, but with pH buffered to 3.6 (“R2 Peels”); and LMP′ peels which were identically formulated to the R2 Peels, other than the replacement of pyruvic acid with sodium pyruvate (“R3 Peels”), were all evaluated.

Consider `O=C(O)C(O)c1ccccc1` (stereo not shown) [Mandelic Acid (M), Mandelic Acid], for which the “% Tyrosinase Inhibition” value worked out at 0.06%.
